Structures are written as SMILES.

Usually IC50 stands for the concentration at which inhibition is half-maximal.

Sequence of human TRPA1 (O75762 whole entry): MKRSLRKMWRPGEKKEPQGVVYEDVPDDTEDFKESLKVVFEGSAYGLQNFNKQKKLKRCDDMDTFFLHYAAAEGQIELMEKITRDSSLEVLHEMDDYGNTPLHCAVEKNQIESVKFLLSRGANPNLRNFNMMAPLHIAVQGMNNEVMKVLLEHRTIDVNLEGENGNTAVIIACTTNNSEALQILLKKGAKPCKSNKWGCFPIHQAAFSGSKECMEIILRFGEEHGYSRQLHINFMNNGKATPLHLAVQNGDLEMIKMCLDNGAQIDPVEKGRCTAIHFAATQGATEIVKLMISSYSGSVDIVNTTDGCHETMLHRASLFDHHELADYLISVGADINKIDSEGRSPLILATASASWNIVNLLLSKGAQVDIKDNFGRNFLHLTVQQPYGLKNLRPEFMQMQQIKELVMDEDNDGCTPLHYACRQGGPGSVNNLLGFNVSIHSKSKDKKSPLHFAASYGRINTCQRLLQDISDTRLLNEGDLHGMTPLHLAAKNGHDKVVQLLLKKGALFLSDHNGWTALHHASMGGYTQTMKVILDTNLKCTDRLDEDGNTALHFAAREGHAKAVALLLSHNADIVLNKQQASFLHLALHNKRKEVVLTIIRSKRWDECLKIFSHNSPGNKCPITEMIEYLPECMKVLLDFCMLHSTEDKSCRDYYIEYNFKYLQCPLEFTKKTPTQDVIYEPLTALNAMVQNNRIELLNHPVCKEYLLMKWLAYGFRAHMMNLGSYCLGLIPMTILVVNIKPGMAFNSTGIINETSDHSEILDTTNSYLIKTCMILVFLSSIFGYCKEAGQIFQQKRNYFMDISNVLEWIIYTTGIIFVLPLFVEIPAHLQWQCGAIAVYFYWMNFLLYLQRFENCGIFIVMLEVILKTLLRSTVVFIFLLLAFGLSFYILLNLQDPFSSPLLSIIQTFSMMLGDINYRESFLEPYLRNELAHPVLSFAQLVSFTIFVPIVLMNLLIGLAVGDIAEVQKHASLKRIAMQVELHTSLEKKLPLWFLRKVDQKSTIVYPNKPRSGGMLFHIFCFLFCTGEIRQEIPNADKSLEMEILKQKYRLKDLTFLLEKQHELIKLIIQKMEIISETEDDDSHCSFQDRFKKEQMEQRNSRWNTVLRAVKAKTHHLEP

The target in this assay is human TRPA1 (Homo sapiens (Human), UniProt O75762). As to the kind of experiment: In vitro inhibition of human TRPA1, whole cell patch configuration. Conditions: current activation 10 μM AITC, tested concentrations 320 pM to 3.2 μM, read-out: hTRPA1 IC50. Type of assay: cell-based. Here is the method:
All currents were recorded in whole-cell configuration using EPC-9 and EPC-10 amplifiers and Patchmaster software (HEKA) or similar. […] The standard bath solution contained 150 mM NaCl, 10 mM HEPES, 10 mM glucose, 4.5 mM KCl, 1 mM EGTA, 3 mM MgCl2, with pH adjusted to 7.4 with NaOH. In some instances, 2 mM CaCl2 was added in place of EGTA and the concentration of MgCl2 was reduced to 1 mM.
Data were collected either by continuous recordings at −60 mV or by applying voltage ramps from a holding potential of −40 mV every 4 s. Continuous recordings were collected at 400 Hz and digitally filtered off-line at 10 Hz for presentation. Voltage ramps were applied from −100 mV or −80 mV to +100 mV or +80 mV over the course of 400 ms, and data were collected at 10 kHz and filtered at 2.9 kHz. Inward and outward currents were analyzed from the ramps at −80 and 80 mV, respectively. Liquid junction potential correction was not used.
Solutions were switched using a gravity-fed continuous focal perfusion system. To achieve rapid temperature changes, two temperature control, and perfusion systems were employed simultaneously. […] Temperatures were confirmed using a thermistor (Warner Instruments, TA-29), with temperatures at the recorded cell estimated to be within +/−2° C. of those reported.
The antagonist effects of compounds of Formula (I) against human TRPA1 (“hTRPA1”) in a whole cell patch configuration were evaluated using the in vitro assay described above.
Consider `CCCC(=O)Cn1c(=O)c2c(ncn2[C@@H](C)C(=O)Nc2cccc(-c3cnc(C(F)(F)F)nc3)n2)n(C)c1=O` [Compound 52, (S)-2-(3-methyl-2,6-dioxo-1-(2-oxopentyl)-2,3-dihydro-1H-purin-7(6H)-yl)-N-(6-(2-(trifluoromethyl)pyrimidin-5-yl)pyridin-2-yl)propanamide], for which the IC50 worked out at 23 nM.

Consider `C[C@@H](C(=O)Nc1ccnc(-c2ccc(N3CC4CC4C3)nc2)n1)n1cnc2c1c(=O)n(CC#N)c(=O)n2C` (stereo partly drawn) [Compound 53, (2S)—N-(2-(6-(3-azabicyclo[3.1.0]hexan-3-yl)pyridin-3-yl)pyrimidin-4-yl)-2-(1-(cyanomethyl)-3-methyl-2,6-dioxo-2,3-dihydro-1H-purin-7(6H)-yl)propanamide], for which the IC50 was 14 nM.

On to `C[C@@H](C(=O)Nc1ccnc(-c2cnc(N3CCC[C@H]3C(F)(F)F)nc2)n1)n1cnc2c1c(=O)n(CC#N)c(=O)n2C` [Compound 54, (S)-2-(1-(cyanomethyl)-3-methyl-2,6-dioxo-2,3-dihydro-1H-purin-7(6H)-yl)-N-(2′-((S)-2-(trifluoromethyl)pyrrolidin-1-yl)-2,5′-bipyrimidin-4-yl)propanamide], for which the IC50 was found to be 7 nM.

For the molecule `Cc1cc(Cn2c(=O)c3c(ncn3[C@@H](C)C(=O)Nc3cncc(-c4cncc(C(F)(F)F)c4)n3)n(C)c2=O)no1` [Compound 55, (S)-2-(3-methyl-1-((5-methylisoxazol-3-yl)methyl)-2,6-dioxo-2,3-dihydro-1H-purin-7(6H)-yl)-N-(6-(5-(trifluoromethyl)pyridin-3-yl)pyrazin-2-yl)propanamide], the IC50 is 5 nM.

Turning to `CC(=O)Cn1c(=O)c2c(ncn2[C@@H](C)C(=O)Nc2csc(-c3cnc(N4CC5C(C4)C5(F)F)nc3)n2)n(C)c1=O` (stereo partly drawn) [Compound 56, (2S)—N-(2-(2-(6,6-difluoro-3-azabicyclo[3.1.0]hexan-3-yl)pyrimidin-5-yl)thiazol-4-yl)-2-(3-methyl-2,6-dioxo-1-(2-oxopropyl)-2,3-dihydro-1H-purin-7(6H)-yl)propanamide], the IC50 was 3 nM.

Consider `CCC(=O)Cn1c(=O)c2c(ncn2[C@@H](C)C(=O)Nc2csc(-c3cnc(N4CC5C(C4)C5(F)F)nc3)n2)n(C)c1=O` (stereo partly drawn) [Compound 57, (2S)—N-(2-(2-(6,6-difluoro-3-azabicyclo[3.1.0]hexan-3-yl)pyrimidin-5-yl)thiazol-4-yl)-2-(3-methyl-2,6-dioxo-1-(2-oxobutyl)-2,3-dihydro-1H-purin-7(6H)-yl)propanamide], for which the IC50 came to 2 nM.

With `C[C@@H](C(=O)Nc1csc(-c2cnc(N3CC4C(C3)C4(F)F)nc2)n1)n1cnc2c1c(=O)n(CC#N)c(=O)n2C` (stereo partly drawn) [Compound 58, (2S)-2-(1-(cyanomethyl)-3-methyl-2,6-dioxo-2,3-dihydro-1H-purin-7(6H)-yl)-N-(2-(2-(6,6-difluoro-3-azabicyclo[3.1.0]hexan-3-yl)pyrimidin-5-yl)thiazol-4-yl)propanamide], the IC50 came to 2 nM.

On to `COCC(=O)Cn1c(=O)c2c(ncn2[C@@H](C)C(=O)Nc2cccc(-c3cnc(C(F)(F)F)nc3)n2)n(C)c1=O` [Compound 59, (S)-2-(1-(3-methoxy-2-oxopropyl)-3-methyl-2,6-dioxo-2,3-dihydro-1H-purin-7(6H)-yl)-N-(6-(2-(trifluoromethyl)pyrimidin-5-yl)pyridin-2-yl)propanamide], for which the IC50 was 45 nM.

In the case of `C[C@@H](C(=O)Nc1cncc(-c2cnc(N3CC4C(C3)C4(F)F)nc2)n1)n1cnc2c1c(=O)n(CC#N)c(=O)n2C` (stereo partly drawn) [Compound 60, (2S)-2-(1-(cyanomethyl)-3-methyl-2,6-dioxo-2,3-dihydro-1H-purin-7(6H)-yl)-N-(6-(2-(6,6-difluoro-3-azabicyclo[3.1.0]hexan-3-yl)pyrimidin-5-yl)pyrazin-2-yl)propanamide], the IC50 amounted to 7 nM.

In the case of `CCC(=O)Cn1c(=O)c2c(ncn2[C@@H](C)C(=O)Nc2ccnc(-c3cnc(N4CC5C(C4)C5(F)F)nc3)n2)n(C)c1=O` (stereo partly drawn) [Compound 62, (2S)—N-(2′-(6,6-difluoro-3-azabicyclo[3.1.0]hexan-3-yl)-[2,5′-bipyrimidin]-4-yl)-2-(3-methyl-2,6-dioxo-1-(2-oxobutyl)-2,3-dihydro-1H-purin-7(6H)-yl)propanamide], the IC50 is 5 nM.

In the case of `CC(=O)Cn1c(=O)c2c(ncn2[C@@H](C)C(=O)Nc2csc(-c3ccc(N4CC5CC5C4)nc3)n2)n(C)c1=O` (stereo partly drawn) [Compound 63, (2S)—N-(2-(6-(3-azabicyclo[3.1.0]hexan-3-yl)pyridin-3-yl)thiazol-4-yl)-2-(3-methyl-2,6-dioxo-1-(2-oxopropyl)-2,3-dihydro-1H-purin-7(6H)-yl)propanamide], the IC50 came to 2 nM.

For `C[C@@H](C(=O)Nc1csc(-c2ccc(N3CC4CC4C3)nc2)n1)n1cnc2c1c(=O)n(CC#N)c(=O)n2C` (stereo partly drawn) [Compound 64, (2S)—N-(2-(6-(3-azabicyclo[3.1.0]hexan-3-yl)pyridin-3-yl)thiazol-4-yl)-2-(1-(cyanomethyl)-3-methyl-2,6-dioxo-2,3-dihydro-1H-purin-7(6H)-yl)propanamide], the IC50 was 2 nM.

Consider `CC(=O)Cn1c(=O)c2c(ncn2[C@@H](C)C(=O)Nc2cccc(-c3ccc(N4CC5C(C4)C5(F)F)nc3)n2)n(C)c1=O` (some centres unmarked) [Compound 65], for which the IC50 is 8 nM.

Regarding `C[C@@H](C(=O)Nc1csc(-c2ccc(N3CC4CC4C3)nc2)n1)n1cnc2c1c(=O)n(CC#N)c(=O)n2C` (stereo partly drawn) [Compound 66, (2S)—N-(2-(6-(3-azabicyclo[3.1.0]hexan-3-yl)pyridin-3-yl)thiazol-4-yl)-2-(1-(cyanomethyl)-3-methyl-2,6-dioxo-2,3-dihydro-1H-purin-7(6H)-yl)propanamide], the IC50 is 2 nM.

For the molecule `C[C@@H](C(=O)Nc1ccnc(-c2cnc(N3CC4C(C3)C4(F)F)nc2)n1)n1cnc2c1c(=O)n(CC#N)c(=O)n2C` (stereo partly drawn) [Compound 67, (2S)-2-(1-(cyanomethyl)-3-methyl-2,6-dioxo-2,3-dihydro-1H-purin-7(6H)-yl)-N-(2′-(6,6-difluoro-3-azabicyclo[3.1.0]hexan-3-yl)-[2,5′-bipyrimidin]-4-yl)propanamide], the IC50 worked out at 7 nM.

Regarding `CCC(=O)Cn1c(=O)c2c(ncn2[C@@H](C)C(=O)Nc2cccc(-c3ccc(N4CC5C(C4)C5(F)F)nc3)n2)n(C)c1=O` (stereo partly drawn) [Compound 68, (2S)—N-(6′-(6,6-difluoro-3-azabicyclo[3.1.0]hexan-3-yl)-[2,3′-bipyridin]-6-yl)-2-(3-methyl-2,6-dioxo-1-(2-oxobutyl)-2,3-dihydro-1H-purin-7(6H)-yl)propanamide], the IC50 stood at 5 nM.

As for `CC(=O)Cn1c(=O)c2c(ncn2[C@@H](C)C(=O)Nc2ccnc(-c3ccc(N4CC5C(C4)C5(F)F)nc3)n2)n(C)c1=O` (stereo partly drawn) [Compound 69, (2S)—N-(2-(6-(6,6-difluoro-3-azabicyclo[3.1.0]hexan-3-yl)pyridin-3-yl)pyrimidin-4-yl)-2-(3-methyl-2,6-dioxo-1-(2-oxopropyl)-2,3-dihydro-1H-purin-7(6H)-yl)propanamide], the IC50 was found to be 7 nM.

On to `CCC(=O)Cn1c(=O)c2c(ncn2[C@@H](C)C(=O)Nc2ccnc(-c3ccc(N4CC5C(C4)C5(F)F)nc3)n2)n(C)c1=O` (stereo partly drawn) [Compound 70, (2S)—N-(2-(6-(6,6-difluoro-3-azabicyclo[3.1.0]hexan-3-yl)pyridin-3-yl)pyrimidin-4-yl)-2-(3-methyl-2,6-dioxo-1-(2-oxobutyl)-2,3-dihydro-1H-purin-7(6H)-yl)propanamide], for which the IC50 stood at 5 nM.

In the case of `CNC(=O)Cn1c(=O)c2c(ncn2[C@@H](C)C(=O)Nc2csc(-c3cnc(N4CC5CC5C4)nc3)n2)n(C)c1=O` (stereo partly drawn) [Compound 71, (2S)—N-(2-(2-(3-azabicyclo[3.1.0]hexan-3-yl)pyrimidin-5-yl)thiazol-4-yl)-2-(3-methyl-1-(2-(methylamino)-2-oxoethyl)-2,6-dioxo-2,3-dihydro-1H-purin-7(6H)-yl)propanamide], the IC50 came out at 44 nM.

For `CCC(=O)Cn1c(=O)c2c(ncn2[C@@H](C)C(=O)Nc2cncc(-c3cnc(N4CC5C(C4)C5(F)F)nc3)n2)n(C)c1=O` (stereo partly drawn) [Compound 75, (2S)—N-(6-(2-(6,6-difluoro-3-azabicyclo[3.1.0]hexan-3-yl)pyrimidin-5-yl)pyrazin-2-yl)-2-(3-methyl-2,6-dioxo-1-(2-oxobutyl)-2,3-dihydro-1H-purin-7(6H)-yl)propanamide], the IC50 was found to be 3 nM.

Turning to `CC(=O)Cn1c(=O)c2c(ncn2[C@@H](C)C(=O)Nc2cncc(-c3ccc(N4CC5C(C4)C5(F)F)nc3)n2)n(C)c1=O` (stereo partly drawn) [Compound 76, (2S)—N-(6-(6-(6,6-difluoro-3-azabicyclo[3.1.0]hexan-3-yl)pyridin-3-yl)pyrazin-2-yl)-2-(3-methyl-2,6-dioxo-1-(2-oxopropyl)-2,3-dihydro-1H-purin-7(6H)-yl)propanamide], the IC50 was 10 nM.

Regarding `C[C@@H](C(=O)Nc1cncc(-c2ccc(N3CC4C(C3)C4(F)F)nc2)n1)n1cnc2c1c(=O)n(CC#N)c(=O)n2C` (some centres unmarked) [Compound 77], the concentration for half-maximal inhibition (IC50) worked out at 2 nM.

For `Cc1cc(Cn2c(=O)c3c(ncn3[C@@H](C)C(=O)Nc3cccc(-c4noc(C(F)(F)F)n4)n3)n(C)c2=O)no1` [Compound 78], the IC50 came to 86 nM.

The values are drawn from patent US10221177B2 (HYDRA BIOSCIENCES, INC., priority 2014, dated 2019).
